In US20200255478A1, “NOVEL COMPOUNDS ACTIVATING THE NRF2 PATHWAY” (Almirall, S.A., priority 2017, published 2020):
Starred links: 1 amine or outer side, 2 acyl side, 3 side chain; linkers in the order of their positions; H or OH if unused. Positions of bridges follow the written chain, without caps; N, C: chain ends. Residues, ends and D or L forms follow the SMILES beside them. *: point of attachment. Pyridine(2,6-diCH2) = c1cc(C[*:1])nc(C[*:2])c1; Pyridine(3,5-bisCH2) = c1ncc(C[*:2])cc1C[*:1]; oXylylene = c1ccc(C[*:2])c(C[*:1])c1; X6 = c1ccc2nc(C[*:2])c(C[*:1])nc2c1; Stearoyl = CCCCCCCCCCCCCCCCCC(=O)*; βAla = NCCC(=O)O

Target: Keap1-Maltose Binding Protein (MBP tag) (Homo sapiens, UniProt Q14145)
Experiment: Nrf2-Keap1 HTRF (TR-FRET) binding assay: displacement of biotinylated ETGE peptide from Keap1-MBP
Conditions: not given

Keap1-Maltose Binding Protein (MBP tag), sequence (Q14145 whole entry): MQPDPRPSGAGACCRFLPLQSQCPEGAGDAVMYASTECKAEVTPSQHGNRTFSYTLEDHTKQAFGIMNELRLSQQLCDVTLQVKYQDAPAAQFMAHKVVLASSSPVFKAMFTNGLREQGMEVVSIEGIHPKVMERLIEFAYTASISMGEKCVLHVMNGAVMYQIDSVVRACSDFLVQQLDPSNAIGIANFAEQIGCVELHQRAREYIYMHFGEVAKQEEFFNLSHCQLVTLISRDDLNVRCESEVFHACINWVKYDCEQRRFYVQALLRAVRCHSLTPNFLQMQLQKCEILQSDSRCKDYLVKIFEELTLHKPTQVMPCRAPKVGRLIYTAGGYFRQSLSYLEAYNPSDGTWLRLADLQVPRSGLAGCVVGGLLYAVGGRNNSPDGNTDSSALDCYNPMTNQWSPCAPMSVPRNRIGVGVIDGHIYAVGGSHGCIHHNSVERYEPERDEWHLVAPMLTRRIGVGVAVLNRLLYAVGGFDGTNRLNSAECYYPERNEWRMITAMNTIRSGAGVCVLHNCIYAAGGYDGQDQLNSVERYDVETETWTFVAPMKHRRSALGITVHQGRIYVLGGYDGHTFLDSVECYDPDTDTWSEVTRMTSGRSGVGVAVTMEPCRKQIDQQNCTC

Question: For CC(C)C[C@H](NC(=O)[C@@H]1CSCc2c(F)c(F)c(F)c(F)c2CSC[C@H](NC(=O)[C@H](CCC(N)=O)NC(=O)[C@@H](N)CC(C)C)C(=O)N[C@@H](CC(=O)O)C(=O)N2CCC[C@H]2C(=O)N[C@@H](CCC(=O)O)C(=O)N[C@@H]([C@@H](C)O)C(=O)NCC(=O)N[C@@H](CCC(=O)O)C(=O)N1)C(=O)N1CCC[C@H]1C(=O)NCCC(=O)N[C@@H](CCCNC(=N)N)C(=O)N[C@@H](CCCCN)C(=O)N[C@@H](CCCCN)C(=O)N[C@@H](CCCNC(=N)N)C(=O)N[C@@H](CCCNC(=N)N)C(=O)N[C@@H](CCC(N)=O)C(=O)N[C@@H](CCCNC(=N)N)C(=O)N[C@@H](CCCNC(=N)N)C(=O)N[C@@H](CCCNC(=N)N)C(N)=O [Example 56], which IC50 is on record?
Answer: < 1 nM

Question: Which IC50 does the source give for CC(=O)N[C@H]1C[C@H]2C(=O)N[C@@H](CCC(N)=O)C(=O)N[C@H]3CSCc4ccccc4CSC[C@H](NC(=O)[C@H](CCC(=O)O)NC(=O)CNC(=O)[C@H]([C@@H](C)O)NC(=O)[C@H](CCC(=O)O)NC(=O)[C@@H]4CCCN4C(=O)[C@H](CC(=O)O)NC3=O)C(=O)N[C@@H](CC(C)C)C(=O)N3CCC[C@@H]3C(=O)N2C1 [Example 64, {[&^1Pro((4S)-NH-Acetyl)-Gln-Cys(&^2)-Asp-Pro-Glu-Thr-Gly-Glu-Cys(&^3)-Leu-D-Pro&^1][&^2(1,2-phenylenediy1)dimethylene&^3]}] here?
Answer: < 1 nM

Same assay, conditions: HTRF (TR-FRET); displacement of ETGE-biotin from Keap1-MBP; values banded into grades; read-out: Binding (IC50) ETGE-Keap1

Question: How did the IC50 turn out when CCCCCCCCCCCCCCCCCC(=O)NCCC(=O)N(C)[C@@H](CC(C)C)C(=O)N[C@@H](CCC(N)=O)C(=O)N[C@H]1CSCc2ccccc2CSC[C@@H](C(=O)N[C@@H](CC(C)C)C(=O)N2CCC[C@H]2C(N)=O)NC(=O)[C@H](CCC(=O)O)NC(=O)CNC(=O)[C@H]([C@@H](C)O)NC(=O)[C@H](CCC(=O)O)NC(=O)[C@@H]2CCCN2C(=O)[C@H](CC(=O)O)NC1=O [Example 45, {[Stearyl-βAla-MeLeu-Gln-Cys(&^1)-Asp-Pro-Glu-Thr-Gly-Glu-Cys(&^2)-Leu-Pro-NH2][&^1(1,2-phenylenediyl)dimethylene&^2]}] was run?
Answer: 1 to 100 nM

Question: For CCCCCCCCCCCCCCCCCC(=O)NCCC(=O)N[C@@H](CCCCN)C(=O)N[C@@H](CCC(N)=O)C(=O)N[C@H]1CSCc2ccccc2CSC[C@@H](C(=O)N[C@@H](CC(C)C)C(=O)N2CCC[C@H]2C(N)=O)NC(=O)[C@H](CCC(=O)O)NC(=O)CNC(=O)[C@H]([C@@H](C)O)NC(=O)[C@H](CCC(=O)O)NC(=O)[C@@H]2CCCN2C(=O)[C@H](CC(=O)O)NC1=O [Example 47, {[Stearyl-βAla-Lys-Gln-Cys(&^1)-Asp-Pro-Glu-Thr-Gly-Glu-Cys(&^2)-Leu-Pro-NH2][&^1(1,2-phenylenediyl)dimethylene&^2]}], which IC50 is on record?
Answer: < 1 nM

Question: Which IC50 does the source give for CCCCCCCCCCCCCCCCCC(=O)NCCC(=O)N[C@@H](CC(C)C)C(=O)N[C@@H](CCC(N)=O)C(=O)N[C@H]1CSCc2ccccc2CSC[C@@H](C(=O)N[C@@H](CC(C)C)C(=O)N2CCC[C@H]2C(N)=O)NC(=O)[C@H](CCC(=O)O)NC(=O)CNC(=O)[C@H]([C@@H](C)O)NC(=O)[C@H](CCC(=O)O)NC(=O)[C@@H]2CCCN2C(=O)[C@H](CC(=O)O)NC1=O [Example 48, {[Stearyl-βAla-Leu-Gln-Cys(&^1)-Asp-Pro-Glu-Thr-Gly-Glu-Cys(&^2)-Leu-Pro-NH2][&^1(1,2-phenylenediyl)dimethylene&^2]}] ({Stearoyl-βAla}-LQCDPETGECLP-NH2; linker 3-10 via oXylylene) here?
Answer: 1 to 100 nM

Question: How did the IC50 turn out when CCCCCCCCCCCCCCCCCC(=O)NCCC(=O)N[C@H](C(=O)N[C@H](C(=O)N[C@H]1CSCc2ccccc2CSC[C@@H](C(=O)N[C@H](C(=O)N[C@H](C(N)=O)C(C)C)C(C)C)NC(=O)[C@H](CCC(=O)O)NC(=O)CNC(=O)[C@H]([C@@H](C)O)NC(=O)[C@H](CCC(=O)O)NC(=O)[C@@H]2CCCN2C(=O)[C@H](CC(=O)O)NC1=O)C(C)C)C(C)C [Example 52, {[Stearyl-βAla-Val-Val-Cys(&^1)-Asp-Pro-Glu-Thr-Gly-Glu-Cys(&^2)-Val-Val-NH2][&^1(1,2-phenylenediyl)dimethylene&^2]}] ({Stearoyl-βAla}-VVCDPETGECVV-NH2; linker 3-10 via oXylylene) was run?
Answer: 1 to 100 nM

Question: CCCCCCCCCCCCCCCCCC(=O)NCCC(=O)N[C@@H](CCCCN)C(=O)N[C@@H](CCCCN)C(=O)N[C@H]1CSCc2ccccc2CSC[C@@H](C(=O)N[C@@H](CCCCN)C(=O)N[C@@H](CCCCN)C(N)=O)NC(=O)[C@H](CCC(=O)O)NC(=O)CNC(=O)[C@H]([C@@H](C)O)NC(=O)[C@H](CCC(=O)O)NC(=O)[C@@H]2CCCN2C(=O)[C@H](CC(=O)O)NC1=O [Example 53, {[Stearyl-βAla-Lys-Lys-Cys(&^1)-Asp-Pro-Glu-Thr-Gly-Glu-Cys(&^2)-Lys-Lys-NH2][&^1(1,2-phenylenediyl)dimethylene&^2]}] ({Stearoyl-βAla}-KKCDPETGECKK-NH2; linker 3-10 via oXylylene) was tested. Which IC50 did it give?
Answer: 1 to 100 nM

Question: CCCCCCCCCCCCCCCCCC(=O)NCCC(=O)N[C@@H](CCCCN)C(=O)N[C@@H](CCCCN)C(=O)N[C@H]1CSCc2ccccc2CSC[C@@H](C(=O)N[C@@H](CC(C)C)C(=O)N2CCC[C@H]2C(N)=O)NC(=O)[C@H](CCC(=O)O)NC(=O)CNC(=O)[C@H]([C@@H](C)O)NC(=O)[C@H](CCC(=O)O)NC(=O)[C@@H]2CCCN2C(=O)[C@H](CC(=O)O)NC1=O [Example 57, {[Stearyl-βAla-Lys-Lys-Cys(&^1)-Asp-Pro-Glu-Thr-Gly-Glu-Cys(&^2)-Leu-Pro-NH2][&^1(1,2-phenylenediyl)dimethylene&^2]}] ({Stearoyl-βAla}-KKCDPETGECLP-NH2; linker 3-10 via oXylylene) was tested. Which IC50 did it give?
Answer: < 1 nM

Question: For CC(C)C[C@H](NC(=O)[C@H](CC(C)C)NC(=O)[C@@H]1CSCc2cc3ccccc3cc2CSC[C@H](NC(=O)[C@H](CC(C)C)NC(=O)[C@@H](N)CC(C)C)C(=O)N[C@@H](CC(=O)O)C(=O)N2CCC[C@H]2C(=O)N[C@@H](CCC(=O)O)C(=O)N[C@@H]([C@@H](C)O)C(=O)NCC(=O)N[C@@H](CCC(=O)O)C(=O)N1)C(=O)NCCC(=O)N[C@@H](CCCNC(=N)N)C(=O)N[C@@H](CCCCN)C(=O)N[C@@H](CCCCN)C(=O)N[C@@H](CCCNC(=N)N)C(=O)N[C@@H](CCCNC(=N)N)C(=O)N[C@@H](CCC(N)=O)C(=O)N[C@@H](CCCNC(=N)N)C(=O)N[C@@H](CCCNC(=N)N)C(=O)N[C@@H](CCCNC(=N)N)C(N)=O [Example 58], which IC50 is on record?
Answer: < 1 nM

Question: How did the IC50 turn out when Cc1cc(C)c2c(C)c1CSC[C@@H](C(=O)N[C@@H](CC(C)C)C(=O)N[C@@H](CC(C)C)C(=O)NCCC(=O)N[C@@H](CCCNC(=N)N)C(=O)N[C@@H](CCCCN)C(=O)N[C@@H](CCCCN)C(=O)N[C@@H](CCCNC(=N)N)C(=O)N[C@@H](CCCNC(=N)N)C(=O)N[C@@H](CCC(N)=O)C(=O)N[C@@H](CCCNC(=N)N)C(=O)N[C@@H](CCCNC(=N)N)C(=O)N[C@@H](CCCNC(=N)N)C(N)=O)NC(=O)[C@H](CCC(=O)O)NC(=O)CNC(=O)[C@H]([C@@H](C)O)NC(=O)[C@H](CCC(=O)O)NC(=O)[C@@H]1CCCN1C(=O)[C@H](CC(=O)O)NC(=O)[C@@H](NC(=O)[C@H](CC(C)C)NC(=O)[C@@H](N)CC(C)C)CSC2 [Example 59] was run?
Answer: < 1 nM

Question: How did the IC50 turn out when CC(C)C[C@H](NC(=O)[C@H](CC(C)C)NC(=O)[C@@H]1CSCc2ccccc2CSC[C@H](NC(=O)[C@H](CC(C)C)NC(=O)[C@@H](N)CC(C)C)C(=O)N[C@@H](CC(=O)O)C(=O)N2CCC[C@H]2C(=O)N[C@@H](CCC(=O)O)C(=O)N[C@@H]([C@@H](C)O)C(=O)NCC(=O)N[C@@H](CCC(=O)O)C(=O)N1)C(=O)NCCC(=O)N[C@@H](CCCNC(=N)N)C(=O)N[C@@H](CCCCN)C(=O)N[C@@H](CCCCN)C(=O)N[C@@H](CCCNC(=N)N)C(=O)N[C@@H](CCCNC(=N)N)C(=O)N[C@@H](CCC(N)=O)C(=O)N[C@@H](CCCNC(=N)N)C(=O)N[C@@H](CCCNC(=N)N)C(=O)N[C@@H](CCCNC(=N)N)C(N)=O [Example 60] was run?
Answer: < 1 nM

Question: How did the IC50 turn out when CCCCCCCCCCCCCCCCCC(=O)NCCC(=O)N[C@@H](CC(C)C)C(=O)N[C@@H](CCC(N)=O)C(=O)N[C@H]1CSCc2nc3ccccc3nc2CSC[C@@H](C(=O)N[C@@H](CC(C)C)C(=O)N2CCC[C@H]2C(N)=O)NC(=O)[C@H](CCC(=O)O)NC(=O)CNC(=O)[C@H]([C@@H](C)O)NC(=O)[C@H](CCC(=O)O)NC(=O)[C@@H]2CCCN2C(=O)[C@H](CC(=O)O)NC1=O [Example 61, {[Stearyl-βAla-Leu-Gln-Cys(&^1)-Asp-Pro-Glu-Thr-Gly-Glu-Cys(&^2)-Leu-Pro-NH2][&^1(quinoxaline)2,3-diyldimethylene&^2]}] ({Stearoyl-βAla}-LQCDPETGECLP-NH2; linker 3-10 via X6) was run?
Answer: 1 to 100 nM

Question: For CCCCCCCCCCCCCCCCCC(=O)NCCC(=O)N[C@@H](CC(C)C)C(=O)N[C@@H](CCC(N)=O)C(=O)N[C@H]1CSCc2cccc(n2)CSC[C@@H](C(=O)N[C@@H](CC(C)C)C(=O)N2CCC[C@H]2C(N)=O)NC(=O)[C@H](CCC(=O)O)NC(=O)CNC(=O)[C@H]([C@@H](C)O)NC(=O)[C@H](CCC(=O)O)NC(=O)[C@@H]2CCCN2C(=O)[C@H](CC(=O)O)NC1=O [Example 62, {[Stearyl-βAla-Leu-Gln-Cys(&^1)-Asp-Pro-Glu-Thr-Gly-Glu-Cys(&^2)-Leu-Pro-NH2][&^1(pyridine)2,6-diyldimethylene&^2]}] ({Stearoyl-βAla}-LQCDPETGECLP-NH2; linker 3-10 via Pyridine(2,6-diCH2)), which IC50 is on record?
Answer: 1 to 100 nM

Question: Which IC50 does the source give for CCCCCCCCCCCCCCCCCC(=O)NCCC(=O)N[C@@H](CC(C)C)C(=O)N[C@@H](CCC(N)=O)C(=O)N[C@H]1CSCc2cncc(c2)CSC[C@@H](C(=O)N[C@@H](CC(C)C)C(=O)N2CCC[C@H]2C(N)=O)NC(=O)[C@H](CCC(=O)O)NC(=O)CNC(=O)[C@H]([C@@H](C)O)NC(=O)[C@H](CCC(=O)O)NC(=O)[C@@H]2CCCN2C(=O)[C@H](CC(=O)O)NC1=O [Example 65, {[Stearyl-βAla-Leu-Gln-Cys(&^1)-Asp-Pro-Glu-Thr-Gly-Glu-Cys(&^2)-Leu-Pro-NH2][&^1(pyridine)3,5-diyldimethylene&^2]}] ({Stearoyl-βAla}-LQCDPETGECLP-NH2; linker 3-10 via Pyridine(3,5-bisCH2)) here?
Answer: < 1 nM
